Target: T1, F508del CFTR (Homo sapiens, UniProt P13569, DEL508-508)
T1 construct: Primary CF airway epithelial cells were obtained from the UNC Cystic Fibrosis Tissue Procurement and Cell Culture Core; host or cells: primary CF airway epithelial cells
Assay: Equivalent current assay in primary CF airway epithelial cells (Corrector Activity, NAUC normalized to 3 μM VX809)
Format: cell-based
Details: NAUC as % of positive control (VX-809)
Procedure, shortened: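 Differentiated primary CF airway cells treated basolaterally 24 h at 37° C with compound (0.1% DMSO). Equivalent current recorded after 5 μM benzamil, stimulation with 10 μM forskolin plus 1 μM VX-770 or 3 μM FDL176, and block by 20 μM CFTR-172; vehicle-subtracted AUC normalized to 3 μM VX809; EC50 from sigmoid fit, Hill slope 1.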

T1 sequence (P13569 with tags, fused parts or gaps DEL508-508): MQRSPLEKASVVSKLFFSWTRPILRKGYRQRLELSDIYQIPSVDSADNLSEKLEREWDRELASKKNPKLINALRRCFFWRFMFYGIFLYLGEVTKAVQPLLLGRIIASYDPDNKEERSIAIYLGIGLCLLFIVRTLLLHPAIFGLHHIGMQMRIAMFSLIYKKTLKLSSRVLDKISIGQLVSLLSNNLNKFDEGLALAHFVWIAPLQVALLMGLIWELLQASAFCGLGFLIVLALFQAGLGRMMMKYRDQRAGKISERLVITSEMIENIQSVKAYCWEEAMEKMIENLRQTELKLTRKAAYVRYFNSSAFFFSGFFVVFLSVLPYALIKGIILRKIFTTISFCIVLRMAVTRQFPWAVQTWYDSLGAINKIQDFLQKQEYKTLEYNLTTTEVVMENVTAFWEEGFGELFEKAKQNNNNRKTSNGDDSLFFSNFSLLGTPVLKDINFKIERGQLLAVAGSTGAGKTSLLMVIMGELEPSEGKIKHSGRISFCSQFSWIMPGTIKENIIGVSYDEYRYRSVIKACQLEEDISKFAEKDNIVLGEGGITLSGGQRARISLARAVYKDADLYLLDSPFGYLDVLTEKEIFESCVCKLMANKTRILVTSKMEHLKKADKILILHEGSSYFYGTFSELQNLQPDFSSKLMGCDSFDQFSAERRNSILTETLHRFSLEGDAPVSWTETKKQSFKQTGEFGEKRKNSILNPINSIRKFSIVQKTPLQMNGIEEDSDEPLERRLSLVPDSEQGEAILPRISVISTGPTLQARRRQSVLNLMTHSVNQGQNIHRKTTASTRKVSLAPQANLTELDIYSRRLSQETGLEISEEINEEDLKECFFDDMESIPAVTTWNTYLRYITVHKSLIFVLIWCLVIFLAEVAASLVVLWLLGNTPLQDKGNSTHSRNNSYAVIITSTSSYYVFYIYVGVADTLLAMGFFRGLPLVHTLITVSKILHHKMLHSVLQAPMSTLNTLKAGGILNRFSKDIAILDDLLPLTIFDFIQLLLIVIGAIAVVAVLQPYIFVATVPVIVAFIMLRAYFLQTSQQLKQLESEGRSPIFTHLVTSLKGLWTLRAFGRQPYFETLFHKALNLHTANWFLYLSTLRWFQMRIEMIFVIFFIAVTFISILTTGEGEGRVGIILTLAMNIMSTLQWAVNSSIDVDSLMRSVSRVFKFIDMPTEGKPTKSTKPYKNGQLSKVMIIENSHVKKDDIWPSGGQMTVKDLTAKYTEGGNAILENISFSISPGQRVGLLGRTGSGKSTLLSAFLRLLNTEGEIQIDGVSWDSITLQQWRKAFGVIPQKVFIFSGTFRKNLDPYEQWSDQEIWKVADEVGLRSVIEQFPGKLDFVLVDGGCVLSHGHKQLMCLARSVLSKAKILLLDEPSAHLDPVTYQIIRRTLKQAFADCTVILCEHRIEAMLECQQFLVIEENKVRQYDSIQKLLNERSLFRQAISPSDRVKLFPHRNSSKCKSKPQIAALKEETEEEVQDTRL

SMILES	Corr Activity (NAUC)
COCCOc1cc(Cl)cc(-c2nn(CC(=O)N(c3ccc4c(c3)OC(F)(F)O4)C3CC3)c(=O)c3nc[nH]c23)c1 [Example 399]	++ (NAUC 70-40% of positive control)
O=C(Cn1nc(-c2cc(Cl)cc(N3CCCC3)c2)c2[nH]cnc2c1=O)N(c1ccc2c(c1)OC(F)(F)O2)C1CC1 [Example 400]	+++ (NAUC>70% of positive control)
O=C(Cn1nc(-c2cc(Cl)cc(C(F)(F)F)c2)c2[nH]cnc2c1=O)N(c1ccc2c(c1)OC(F)(F)O2)C1CC1 [Example 401]	++ (NAUC 70-40% of positive control)
Cc1cc(-c2nn(CC(=O)N(c3ccc4c(c3)OC(F)(F)O4)C3CC3)c(=O)c3nc[nH]c23)cc(C(F)(F)F)c1 [Example 402]	++ (NAUC 70-40% of positive control)
N#Cc1cc(-c2nn(CC(=O)N(c3ccc4c(c3)OC(F)(F)O4)C3CC3)c(=O)c3nc[nH]c23)cc(C(F)(F)F)c1 [Example 404]	++ (NAUC 70-40% of positive control)
O=C(Cn1nc(-c2cc(Cl)cc(CO)c2)c2[nH]cnc2c1=O)N(c1ccc2c(c1)OC(F)(F)O2)C1CC1 [Example 405]	+ (NAUC<40% of positive control)
O=C(Cn1nc(-c2cc(O)cc(OC(F)(F)F)c2)c2[nH]cnc2c1=O)N(c1ccc2c(c1)OC(F)(F)O2)C1CC1 [Example 407]	+ (NAUC<40% of positive control)
N#Cc1cc(OC(F)(F)F)cc(-c2nn(CC(=O)N(c3ccc4c(c3)OC(F)(F)O4)C3CC3)c(=O)c3nc[nH]c23)c1 [Example 408]	++ (NAUC 70-40% of positive control)
COc1cc(C#N)cc(-c2nn(CC(=O)N(c3ccc4c(c3)OC(F)(F)O4)C3CC3)c(=O)c3nc[nH]c23)c1 [Example 409]	++ (NAUC 70-40% of positive control)
O=C(Cn1nc(-c2ccc3c(ccn3S(=O)(=O)c3ccccc3)c2)c2[nH]cnc2c1=O)N(c1ccc2c(c1)OC(F)(F)O2)C1CC1 [Example 423]	+ (NAUC<40% of positive control)
O=C(Cn1nc(-c2ccc3c(c2)ncn3-c2ccccc2)c2[nH]cnc2c1=O)N(c1ccc2c(c1)OC(F)(F)O2)C1CC1 [Example 433]	+ (NAUC<40% of positive control)
O=C(Cn1nc(-c2ccc(OCC3CC3)c(Cl)c2)c2[nH]cnc2c1=O)N(c1ccc2c(c1)OC(F)(F)O2)C1CC1 [Example 465]	++ (NAUC 70-40% of positive control)
N#Cc1cc(-c2nn(CC(=O)N(c3ccc4c(c3)OC(F)(F)O4)C3CC3)c(=O)c3nc[nH]c23)ccc1N1CCCC1 [Example 470]	+++ (NAUC>70% of positive control)
N#Cc1cc(-c2nn(CC(=O)N(c3ccc4c(c3)OC(F)(F)O4)C3CC3)c(=O)c3nc[nH]c23)ccc1OC(F)(F)F [Example 483]	++ (NAUC 70-40% of positive control)
N#Cc1cc(-c2nn(CC(=O)N(c3ccc4c(c3)OC(F)(F)O4)C3CC3)c(=O)c3nc[nH]c23)ccc1N1CCC1 [Example 487]	++ (NAUC 70-40% of positive control)
N#Cc1cc(-c2nn(CC(=O)N(c3ccc4c(c3)OC(F)(F)O4)C3CC3)c(=O)c3nc[nH]c23)ccc1N1CCC(F)C1 (stereo not drawn) [Example 488]	+++ (NAUC>70% of positive control)
N#Cc1cc(-c2nn(CC(=O)N(c3ccc4c(c3)OC(F)(F)O4)C3CC3)c(=O)c3nc[nH]c23)ccc1N1CCC(F)(F)C1 [Example 489]	+++ (NAUC>70% of positive control)
O=C(Cn1nc(-c2ccc(N3CCCC3)cc2)c2[nH]cnc2c1=O)N(c1ccc2c(c1)OC(F)(F)O2)C1CC1 [Example 490]	+ (NAUC<40% of positive control)
N#Cc1cc(-c2nn(CC(=O)N(c3ccc4c(c3)OC(F)(F)O4)C3CC3)c(=O)c3nc[nH]c23)ccc1N1CCCCC1 [Example 491]	++ (NAUC 70-40% of positive control)

Now from value to compound:

Corr Activity (NAUC)	SMILES
++ (NAUC 70-40% of positive control)	COc1ccc2cc(-c3nn(CC(=O)N(c4ccc5c(c4)OC(F)(F)O5)C4CC4)c(=O)c4nc[nH]c34)ccc2c1 [Example 412]
+ (NAUC<40% of positive control)	Cn1c2ccccc2c2cc(-c3nn(CC(=O)N(c4ccc5c(c4)OC(F)(F)O5)C4CC4)c(=O)c4nc[nH]c34)ccc21 [Example 425]
+ (NAUC<40% of positive control)	O=C1Cc2ccc(-c3nn(CC(=O)N(c4ccc5c(c4)OC(F)(F)O5)C4CC4)c(=O)c4nc[nH]c34)cc2N1 [Example 426]
+ (NAUC<40% of positive control)	CC(C)n1ncc2cc(-c3nn(CC(=O)N(c4ccc5c(c4)OC(F)(F)O5)C4CC4)c(=O)c4nc[nH]c34)ccc21 [Example 430]
+ (NAUC<40% of positive control)	CN1C(=O)Cc2ccc(-c3nn(CC(=O)N(c4ccc5c(c4)OC(F)(F)O5)C4CC4)c(=O)c4nc[nH]c34)cc21 [Example 432]
+++ (NAUC>70% of positive control)	N#Cc1cc(-c2nn(CC(=O)N(c3ccc4c(c3)OC(F)(F)O4)C3CC3)c(=O)c3nc[nH]c23)ccc1Cl [Example 445]
+++ (NAUC>70% of positive control)	CC(C)Oc1ccc(-c2nn(CC(=O)N(c3ccc4c(c3)OC(F)(F)O4)C3CC3)c(=O)c3nc[nH]c23)cc1Cl [Example 446]
+ (NAUC<40% of positive control)	O=C(Cn1nc(-c2ccc(C(F)(F)F)c(Cl)c2)c2[nH]cnc2c1=O)N(c1ccc2c(c1)OC(F)(F)O2)C1CC1 [Example 448]
+ (NAUC<40% of positive control)	O=C(Cn1nc(-c2ccc(OCC(F)(F)F)c(F)c2)c2[nH]cnc2c1=O)N(c1ccc2c(c1)OC(F)(F)O2)C1CC1 [Example 457]
+++ (NAUC>70% of positive control)	COc1ccc(-c2nn(CC(=O)N(c3ccc4c(c3)OC(F)(F)O4)C3CC3)c(=O)c3nc[nH]c23)cc1C#N [Example 464]
+++ (NAUC>70% of positive control)	CN(C)c1ccc(-c2nn(CC(=O)N(c3ccc4c(c3)OC(F)(F)O4)C3CC3)c(=O)c3nc[nH]c23)cc1C#N [Example 486]
++ (NAUC 70-40% of positive control)	CCN(C(=O)Cn1nc(-c2cccc(C#N)c2)c2[nH]ncc2c1=O)c1ccc2c(c1)OC(F)(F)O2 [Example 492, 2-(7-(3-cyanophenyl)-4-oxo-1,4-dihydro-5H-pyrazolo[3,4-d]pyridazin-5-yl)-N-(2,2-difluorobenzo[d][1,3]dioxol-5-yl)-N-ethylacetamide]
++ (NAUC 70-40% of positive control)	CCN(C(=O)Cn1nc(-c2cccc(C#N)c2)c2cn[nH]c2c1=O)c1ccc2c(c1)OC(F)(F)O2 [Example 493, 2-(4-(3-cyanophenyl)-7-oxo-1,7-dihydro-6H-pyrazolo[3,4-d]pyridazin-6-yl)-N-(2,2-difluorobenzo[d][1,3]dioxol-5-yl)-N-ethylacetamide]
++ (NAUC 70-40% of positive control)	CN(C(=O)Cn1nc(-c2cccc(C#N)c2)c2cn[nH]c2c1=O)c1ccc2c(c1)OC(F)(F)O2 [Example 494]
++ (NAUC 70-40% of positive control)	CCN(C(=O)Cn1nc(-c2cccc(F)c2)c2cn[nH]c2c1=O)c1ccc2c(c1)OC(F)(F)O2 [Example 495]
++ (NAUC 70-40% of positive control)	CCN(C(=O)Cn1nc(-c2cccc(Cl)c2)c2cn[nH]c2c1=O)c1ccc2c(c1)OC(F)(F)O2 [Example 496]
+ (NAUC<40% of positive control)	CN(C(=O)Cn1nc(-c2cccc(F)c2)c2cn[nH]c2c1=O)c1ccc2c(c1)OC(F)(F)O2 [Example 497]
+ (NAUC<40% of positive control)	CN(C(=O)Cn1nc(-c2cccc(Cl)c2)c2cn[nH]c2c1=O)c1ccc2c(c1)OC(F)(F)O2 [Example 498]
+ (NAUC<40% of positive control)	CCN(C(=O)Cn1nc(-c2cccc(F)c2)c2[nH]ncc2c1=O)c1ccc2c(c1)OC(F)(F)O2 [Example 499]
++ (NAUC 70-40% of positive control)	CCN(C(=O)Cn1nc(-c2cccc(Cl)c2)c2[nH]ncc2c1=O)c1ccc2c(c1)OC(F)(F)O2 [Example 500]
+++ (NAUC>70% of positive control)	CCN(C(=O)Cn1nc(-c2cccc(F)c2)c2[nH]ccc2c1=O)c1ccc2c(c1)OC(F)(F)O2 [Example 501, N-(2,2-difluorobenzo[d][1,3]dioxol-5-yl)-N-ethyl-2-(7-(3-fluorophenyl)-4-oxo-1,4-dihydro-5H-pyrrolo[2,3-d]pyridazin-5-yl)acetamide]
+++ (NAUC>70% of positive control)	CCN(C(=O)Cn1nc(-c2cccc(Cl)c2)c2[nH]ccc2c1=O)c1ccc2c(c1)OC(F)(F)O2 [Example 502]
+++ (NAUC>70% of positive control)	CCN(C(=O)Cn1nc(-c2cccc(C#N)c2)c2[nH]ccc2c1=O)c1ccc2c(c1)OC(F)(F)O2 [Example 503]
